Assay results reported in patent publication US10683318B2, “Scalable synthesis of reduced toxicity derivative of amphotericin B” (priority 2014, dated 2020).
≈ marks a conversion by molar mass, not a printed value. Read-outs that look alike come from different tables or passages of the source.

Key:
[1] = tested on: primary human renal proximal tubule epithelial cells; assay: WST-8 cell proliferation assay on primary RPTECs; assay type: cell-based; details: concentration causing 90% loss of cell viability of primary human RPTECs, 24 hours
Description: Primary human renal proximal tubule epithelial cells (RPTECs) were purchased from ATCC (Manassas, Va.) and immediately cultured upon receipt. Complete growth media was prepared using renal epithelial cell basal medium (ATCC, PCS-400-030), renal epithelial cell growth kit (ATCC, PCS-400-040), and penicillin-streptomycin (10 units/mL and 10 μg/mL). Complete media was stored at 4° C. in the dark and used within 28 days. Primary RPTECs were grown in CO2 incubator at 37° C. with an atmosphere of 95% air/5% CO2.
WST-8 cell proliferation assay kit (10010199) was purchased from Cayman Chemical Company (Ann Arbor, Mich.) and stored at −20° C. and used within 6 months of receipt. WST-8 reagent and electron mediator solution were thawed and mixed to prepare the WST-8 reagent solution. The solution was stored at −20° C. and used within one week.
A suspension of primary RPTECs in complete growth media was brought to a concentration of 1×10^5 cells/mL. A 96-well plate was seeded with 99 μL of the cell suspension and incubated at 37° C. with an atmosphere of 95% air/5% CO2 for 3 hours. Positive and negative controls were prepared by seeding with 100 μL of the cell suspension or 100 μL of the complete media. […] Following incubation, the 96-well plate was mixed in a shaking incubator at 200 rpm for 1 minute and absorbances were read at 450 nm using a Biotek H1 Synergy Hybrid Reader (Winooski, Vt.). […]

human red blood cells [2] = assay: Minimum hemolysis concentration (MHC) assay; details: concentration causing 90% hemolysis of human red blood cells, 37° C., 2 hours
Description: (§3) Whole human blood (sodium heparin) was purchased from Bioreclamation LLC (Westbury, N.Y.) and stored at 4° C. and used within two days of receipt. To a 2.0 mL Eppendorf tube, 1 mL of whole human blood was added and centrifuged at 10,000 g for 2 minutes. The supernatant was removed and the erythrocyte pellet was washed with 1 mL of sterile saline and centrifuged at 10,000 g for 2 minutes. The saline wash was repeated for a total of three washes. The erythrocyte pellet was suspended in 1 mL of RBC buffer (10 mM NaH2PO4, 150 mM NaCl, 1 mM MgCl2, pH 7.4) to form the erythrocyte stock suspension.
(§4) Compounds were prepared as 1.03 min (AmB) or 12.8 min (C2′epiAmB) stock solutions in DMSO and serially diluted to the following concentrations with DMSO: 7689, 5126, 2563, 2050, 1538, 1025, 769, 513, 384, 256, 205, 154, 103, 77, 51, 26 μM. […] Positive and negative controls were prepared by adding 1 μL of DMSO to MilliQ water or RBC buffer, respectively to 0.2 mL PCR tube. To each PCR tube, 0.63 μL of the erythrocyte stock suspension was added and mixed by inversion. The samples were incubated at 37° C. for 2 hours. The samples were mixed by inversion and centrifuged at 10,000 g for 2 minutes. […] Absorbances were read at 540 nm using a Biotek H1 Synergy Hybrid Reader (Winooski, Vt.). […]
(§5) Percent hemolysis was determined according to the following equation: […]

healthy mice = assay: Acute toxicity, single intravenous administration to healthy mice; assay type: in vivo; details: single i.v.
Description: In a separate experiment, acute toxicity was determined by single intravenous administration of AmB or C2′epiAmB to healthy mice, followed by monitoring for lethality.

[3] = Isothermal titration calorimetry with POPC LUVs containing 10% ergosterol; assay type: binding; details: ITC; for Ergosterol binding (net exotherm vs sterol-free LUVs): result in words
Description: (§1) In an optimized isothermal titration calorimetry (ITC)-based assay, an aqueous solution of AmB was titrated with a suspension of large unilamellar vesicles (LUVs) comprised of only 1-palmitoyl-2-oleoyl-sn-glycero-3-phosphocholine (POPC), and the net exotherm was recorded. The titration was repeated using POPC LUVs containing 10% ergosterol. […] The titration was repeated using C2′epiAmB. […] The ITC assay was also conducted with cholesterol in place of ergosterol.
(§2) Experiments were performed using a NanoITC isothermal titration calorimeter (TA Instruments, Wilmington, Del.). Solutions of the compounds to be tested were prepared by diluting a 60.0 mM stock solution of the compound in DMSO to 600 μM with K buffer (5.0 mM HEPES/KHEPES, pH=7.4). The final DMSO concentration in the solution was 1% v/v. Large unilamellar vesicles comprised of only 1-palmitoyl-2-oleoyl-sn-glycero-3-phosphocholine (POPC LUVs) were prepared and phosphorus and ergosterol content was quantified as described below. The LUV solutions were diluted with buffer and DMSO to give a final phospholipid concentration of 12.0 mM in a 1% DMSO/K buffer solution. Immediately prior to use, all solutions were incubated at 37° C. for 30 minutes and degassed under vacuum at 37° C. for 10 minutes. The reference cell of the instrument (volume=0.190 mL) was filled with a solution of 1% v/v DMSO/K buffer.
Palmitoyl oleoyl phosphatidylcholine (POPC) was obtained as a 20 mg/mL solution in CHCl3 from Avanti Polar Lipids (Alabaster, Ala.) and was stored at −20° C. under an atmosphere of dry argon and used within 1 month. A 4 mg/mL solution of ergosterol in CHCl3 was prepared monthly and stored at 4° C. under an atmosphere of dry argon. Prior to preparing a lipid film, the solutions were warmed to ambient temperature to prevent condensation from contaminating the solutions. A 13×100 mm test tube was charged with 800 μL POPC and 230 μL of the ergosterol solution. For cholesterol-containing liposomes, a 13×100 mm test tube was charged with 800 μL POPC and 224 μL of the […] solution. […]

S. cerevisiae = assay: Broth microdilution MIC assay, S. cerevisiae; assay type: cell-based; details: Saccharomyces cerevisiae, 30° C., 24 hours, no visible growth
Description: Liquid cultures were incubated at 30° C. on a rotary shaker and solid cultures were maintained at 30° C. in an incubator.
(§6) The protocol for the broth microdilution assay was adapted from the Clinical and Laboratory Standards Institute document M27-A2. […] 50 mL of YPD media was inoculated and incubated overnight at either 30° C. (S. cerevisiae) or 37° C. (C. albicans) in a shaker incubator. The cell suspension was then diluted with YPD to an OD600 of 0.10 (˜5×10^5 cfu/mL) as measured by a Shimadzu (Kyoto, Japan) PharmaSpec UV-1700 UV/Vis spectrophotometer. The solution was diluted 10-fold with YPD, and 195 μL aliquots of the dilute cell suspension were added to sterile Falcon (Franklin Lakes, N.J.) Microtest 96-well plates in triplicate. Compounds may be prepared as 400 μM stock solutions in DMSO and serially diluted to the following concentrations with DMSO: 1600, 1200, 800, 400, 320, 240, 200, 160, 120, 80, 40, 20, 10 and 5 μM. 5 μL aliquots of each solution were added to the 96-well plate in triplicate, with each column representing a different concentration of the test compound. […] This 40-fold dilution gave the following final concentrations: 50, 40, 30, 20, 10, 8, 6, 4, 1, 0.5, 0.25 and 0.125 μM. The plates were covered and incubated at 30° C. (S. cerevisiae) or 37° C. (C. albicans) for 24 hours prior to analysis. […]

human red blood cells [4] = details: 2 h, pH 7.4
Description: as §3, §4, §5

C. albicans [5] = assay: Mouse model of disseminated candidiasis; assay type: in vivo; details: neutropenic mice, single i.p. 16 mg/kg 2 hours post infection, kidneys at 24 hours post infection
Description: The antifungal efficacy of C2′epiAmB was tested in a mouse model of disseminated candidiasis. In this experiment neutropenic mice were infected with C. albicans via their tail veins, and then 2 hours post infection the mice were treated with a single intraperitoneal injection of 16 mg/kg AmB or C2′epiAmB. Then at 24 hours post infection the mice were sacrificed, and the fungal burden present in their kidneys was quantified.

[6] = Isothermal titration calorimetry with POPC LUVs containing 10% cholesterol; assay type: binding; details: ITC
Description: as §1
as §2, with “buffer. […]” for “buffer.”

C. albicans [7] = assay: Broth microdilution MIC assay, C. albicans; assay type: cell-based; details: Candida albicans, 37° C., 24 hours, no visible growth
Description: C. albicans was cultured in a similar manner to S. cerevisiae except both liquid and solid cultures were incubated at 37° C.
as §6

[8] = Isothermal titration calorimetry with sterol-free POPC LUVs; assay type: binding; details: ITC, no sterol (POPC LUVs), 600 μM compound, 25° C.
Description: as §1
as §2, with “buffer. […]” for “buffer.”

| SMILES | minimum toxic concentration (MTC) [1] | minimum hemolytic concentration (MHC) (human red blood cells [2]) | Lethality (healthy mice; 4 mg/kg) | Ergosterol binding (net exotherm vs sterol-free LUVs) [3] | MIC (S. cerevisiae) | Lethality (healthy mice; up to 16 mg/kg) | minimum hemolytic concentration (MHC) (human red blood cells [4]) | Reduction of fungal burden relative to AmB (C. albicans [5]) | Reduction of fungal burden in kidneys compared with AmB (C. albicans [5]; result in words) | Total exotherm ([6]; POPC LUVs with 10% cholesterol, 600 μM compound, 25° C.) | Cholesterol binding ([6]; result in words) | MIC (C. albicans [7]) | Total exotherm ([3]; POPC LUVs with 10% ergosterol, 600 μM compound, 25° C.) | Total exotherm [8] |
| --- | --- | --- | --- | --- | --- | --- | --- | --- | --- | --- | --- | --- | --- | --- |
| C[C@@H]1[C@H](O)[C@@H](C)/C=C/C=C/C=C/C=C/C=C/C=C/C=C/[C@H](O[C@@H]2O[C@H](C)[C@@H](O)[C@H](N)[C@@H]2O)C[C@@H]2O[C@](O)(C[C@@H](O)C[C@@H](O)[C@H](O)CC[C@@H](O)C[C@@H](O)CC(=O)O[C@H]1C)C[C@H](O)[C@H]2C(=O)O [AmB, amphotericin B] | 2.4 µM | 8.5 µM | died within seconds | significant increase in net exotherm | – | – | – | – | – | – | – | – | – | – |
| C[C@@H]1[C@H](O)[C@@H](C)/C=C/C=C/C=C/C=C/C=C/C=C/C=C/[C@H](O[C@@H]2O[C@H](C)[C@@H](O)[C@H](N)[C@H]2O)C[C@@H]2O[C@](O)(C[C@@H](O)C[C@@H](O)[C@H](O)CC[C@@H](O)C[C@@H](O)CC(=O)O[C@H]1C)C[C@H](O)[C@H]2C(=O)O [C2′epiAmB] | no evidence of toxicity up to the limits of solubility | – | – | binds to ergosterol | 2 µM (≈ 1.85 µg/mL) | no deaths observed | > 500 µM | 0.5 log units | more effective than AmB | -6.43 ± 2.80 µcal | not found to bind to cholesterol | 2 µM (≈ 1.85 µg/mL) | -15.24 ± 1.66 µcal | -6.70 ± 0.11 µcal |
